The source of these data is PMC4645461 (Peptides, 2015).

For test [1] the following is noted: cited from earlier work.
Test [2] has as its target T1, rat GLP-1 receptor (Rattus norvegicus, UniProt P32301).
T1 construct: host or cells: CHL (Chinese hamster lung)
T1 sequence (P32301 22-463): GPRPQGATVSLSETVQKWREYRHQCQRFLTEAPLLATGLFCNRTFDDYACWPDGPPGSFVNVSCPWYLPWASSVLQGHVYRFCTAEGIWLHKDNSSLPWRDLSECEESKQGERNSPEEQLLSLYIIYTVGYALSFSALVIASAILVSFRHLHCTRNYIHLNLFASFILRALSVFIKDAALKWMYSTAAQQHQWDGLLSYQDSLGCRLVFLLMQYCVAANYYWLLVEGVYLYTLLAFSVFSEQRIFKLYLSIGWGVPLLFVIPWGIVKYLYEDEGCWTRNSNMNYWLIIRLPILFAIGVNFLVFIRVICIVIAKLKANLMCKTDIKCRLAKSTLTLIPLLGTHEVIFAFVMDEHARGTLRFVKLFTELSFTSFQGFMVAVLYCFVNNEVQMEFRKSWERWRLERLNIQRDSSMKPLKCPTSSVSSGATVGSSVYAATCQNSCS
Put plainly: cAMP accumulation, CHL cells over-expressing the rat GLP-1 receptor. As to conditions: analogue average EC50/average GLP-1 EC50; below 1 enhanced efficacy, above 1 decreased efficacy vs native peptide. It is filed as cell-based. The method, then: (§1) For cAMP studies, cells were seeded at a density of 150000 cells/ml in a 48 well plate (Nunc, VWR International Inc., Chicago, USA) and incubated for 24 h. Cells were serum starved for 1 h and then incubated for 30 mins at room temperature with a range of peptide concentrations diluted in serum free DMEM (Sigma–Aldrich, Dorset, UK) in the presence of 1 mM IBMX (3-isobutyl-1-methylxanthine, Sigma–Aldrich). […] EC50’s were calculated using Prism v5 (GraphPad Software Inc., San Diego, CA, USA). Concentrations were applied in duplicate or triplicate per experiment and each experiment repeated a minimum of 3 times.
(§2) All food and bodyweight data are presented as mean ± SEM. […] Differences in 0–7 days cumulative food intake and bodyweight data were analysed using one way ANOVA and post hoc tests with Dunnett’s or Bonferroni corrections for multiple comparisons (Prism v5, GraphPad Software Inc. San Diego, CA, USA). cAMP EC50’s were calculated using a sigmoidal dose response curve and non-linear regression (Prism v5). […] In all cases P < 0.05 was considered statistically significant.
(Changes in cAMP serve as a functional read-out for many G protein-coupled receptors.)

Test [3] relates to human glucagon receptor. The settings on record: compared to native peptides; ref [22],[23],[32]; cited from earlier work.
Details of test [4]: method as in earlier work. As to conditions: native oxyntomodulin and longer lasting dual analogues; rodents ref [6],[9],[10],[23],[26],[31]; humans ref [36],[37]; cited from earlier work. The source says: Additionally, methods of peptide administration differ: some studies infused peptides while others administer ...
For test [5] the following is noted: rodents and humans; ref [7],[19],[34],[36],[37]; cited from earlier work.
Test [6] has as its system human GLP-1 receptor. As to conditions: compared to native peptides; ref [22],[23],[32]; cited from earlier work.
Test [7] has as its target T2, rat glucagon receptor (Rattus norvegicus, UniProt P30082).
T2 construct: host or cells: CHO-K1
Put plainly: cAMP accumulation, CHO-K1 cells over-expressing the rat glucagon receptor. The class given is cell-based. The settings on record: rat glucagon receptor vs rat GLP-1 receptor. As for the experimental part: as §1, §2

“Also recorded” adds a separate entry of the source.

T2 sequence (P30082 27-485): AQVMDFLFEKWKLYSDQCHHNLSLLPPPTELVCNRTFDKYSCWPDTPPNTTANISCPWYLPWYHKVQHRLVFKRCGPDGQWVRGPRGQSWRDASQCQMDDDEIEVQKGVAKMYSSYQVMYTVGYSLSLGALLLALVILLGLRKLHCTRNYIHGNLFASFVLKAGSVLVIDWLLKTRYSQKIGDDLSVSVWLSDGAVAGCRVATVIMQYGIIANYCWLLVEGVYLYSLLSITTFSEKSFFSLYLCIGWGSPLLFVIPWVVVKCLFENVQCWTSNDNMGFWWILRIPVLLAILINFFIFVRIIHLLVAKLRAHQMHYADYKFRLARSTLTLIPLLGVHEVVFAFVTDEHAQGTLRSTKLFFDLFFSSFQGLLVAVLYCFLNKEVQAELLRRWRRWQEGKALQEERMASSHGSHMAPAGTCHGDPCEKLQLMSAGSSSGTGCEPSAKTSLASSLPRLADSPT

Exendin-4: the “weight loss in standard chow fed animals” value in test [1] (ref [33],[38]) was “weight loss”.
GLP-1(7-36NH2): the “EC50 ratio to native peptide, Rat GLP-1r” value in test [2] came out at 1.0 arbitrary units.
Consider oxyntomodulin [OXM], for which the “weight loss” value in test [1] (peripheral administration, rodents ref [1],[5],[6],[25], humans ref [4],[36],[37]) is “causes weight loss”. Further, the “activation of human glucagon receptor” value in test [3] is “reduced efficacy compared to the native peptides”. For the same substance, in test [4], the “food intake after repeated peripheral administration” value is “reduction in food intake”. Also, in test [5], the “energy expenditure” value is reported as “increase energy expenditure”. Besides, the “activation of human GLP-1 receptor” value in test [6] is given as “reduced efficacy compared to the native peptides”. Further, the “preference between rat glucagon and GLP-1 receptors” value in test [7] is on record as “greater efficacy at the glucagon receptor than the GLP1 receptor; also recorded: favoured glucagon receptor activity”.
